Results on two substances are retold here after patent publication US11459358B2, “Substances for targeting various selected organs or tissues” (BioMarin Technologies B.V., priority 2016, dated 2022).

In one assay the test system is Human control myotubes. The assay is described as follows: Uptake of FITC-labeled peptides in human control myotubes, fluorescence microscopy. The class given is cell-based. As to conditions: 2.25 μM FITC-labeled peptide. As to the method: Human control myoblasts (Km155.c25 cells, (Zhu et al., 2007)) were grown in skeletal muscle cell growth medium (Promocell, C-23160) supplemented with an extra 15% FBS (from, Gibco, the Netherlands) and 50 μg/ml gentamicin (PAA Laboratories) in uncoated flasks until 70-80% confluence was reached. Cells were plated in a 6 wells plate with 0.5% gelatin coated glass slides (Sigma Aldrich, the Netherlands), at a density of 1×10^5 cells per well, 48 hours prior to differentiation. Reaching 90% confluence, medium was switched to differentiation medium (Dulbecco's medium (without phenol red) with 2% FBS, 50 μg/ml gentamicin, 2% glutamax and 1% glucose (all from Gibco-BRL, the Netherlands)). Cells were allowed to differentiate for 3-5d.
(§1) Fluorescently labeled peptides were labeled using fluorescein isothiocyanate (FITC) and were obtained from Pepscan (Lelystad, the Netherlands). The FITC-label was attached to an Ahx (6-aminohexanoic acid) spacer which was added to the N-terminal end of the peptide, the C-terminal part was amidated and peptides were made circular by disulfide cyclization. Peptides according to the invention had cysteine flanking moieties wherein the flanking moieties were directly adjacent to the targeting sequences SEQ ID NOs: 14-25.
Human control myotubes and primary human cardiomyocytes were washed 2 times with PBS and incubated with 2.25 μM of FITC-labeled peptides in serum free media for 3 h at 37° C. and 5% CO2. Cells were washed 3 times with PBS and fixed with cold methanol (−20° C.) for 5 min (human control myotubes) or 10 min (human cardiomyocytes). Subsequently the glass slides were shortly air dried, and embedded on microscope slides with Vectashield hard set with 4′,6-diamidino-2-phenylindole (DAPI) mounting media (Vector laboratories). After drying 30 min, slides were analyzed with fluorescence microscopy (Leica DM5500 B) using a CCD camera (Leica DFC 360 FX). Representative pictures are shown. […]
The linear versions of the peptides comprising SEQ ID NO: 24 or SEQ ID NO: 25, in which the Cys residues were replaced with Ala residues, were labelled as described above and incubated with human control myotubes for 3 h (FIG. 3d).

In the next assay the test system is human cardiomyocytes. Briefly: Uptake of FITC-labeled peptides in human cardiomyocytes, fluorescence microscopy. It counts as cell-based. As to conditions: 2.25 μM FITC-labeled peptide. As to the method: Immortalized human cardiomyocytes (applied biological materials, Canada) were grown in Prigrow I medium supplemented with 10% FBS and 1% P/S in collagen coated flasks. Cells were plated in collagen coated glass slides in 6 wells plates and grown until confluence prior to experiments.
as §1
Human control myotubes and primary human cardiomyocytes were washed 2 times with PBS and incubated with 2.25 μM of FITC-labeled peptides in serum free media for 3 h at 37° C. and 5% CO2. Cells were washed 3 times with PBS and fixed with cold methanol (−20° C.) for 5 min (human control myotubes) or 10 min (human cardiomyocytes). Subsequently the glass slides were shortly air dried, and embedded on microscope slides with Vectashield hard set with 4′,6-diamidino-2-phenylindole (DAPI) mounting media (Vector laboratories). After drying 30 min, slides were analyzed with fluorescence microscopy (Leica DM5500 B) using a CCD camera (Leica DFC 360 FX). Representative pictures are shown.
FITC-labeled peptides comprising SEQ ID NO:24 or SEQ ID NO: 25 were incubated at a dose of 2.25 μM, slides were imbedded in mounting media containing DAPI and analyzed with Leica microscopy using a CCD camera (Leica DFC 360 FX); Human control myotubes for 1 or 3 h (FIG. 3a) and human cardiomyocytes for 3 h (FIG. 3b).

“Also recorded” adds a separate entry of the source.

Consider “SEQ ID NO: 24: FITC-Ahx N-terminal, C-terminal amide, disulfide-cyclized peptide with Cys residues flanking targeting sequence LNSLFGS (N-terminal FITC-Ahx, C-terminal amide, disulfide cyclized; Randomly generated peptide)”, for which the “fluorescence in the cells” value in the assay with Human control myotubes (1 h) is “clear fluorescence throughout the cells and in the nuclei”; in the assay on Human control myotubes (3 h), “Brightest fluorescence”; in the assay with Human control myotubes (3 h, listed as SEQ ID NO:24), “clear fluorescence throughout the cells and in the nuclei”; with human cardiomyocytes (3 h), “Brightest fluorescence”; with human cardiomyocytes (3 h, listed as SEQ ID NO:24), “clear fluorescence throughout the cells and in the nuclei”.
In the case of “SEQ ID NO: 25: FITC-Ahx N-terminal, C-terminal amide, disulfide-cyclized peptide with Cys residues flanking targeting sequence QLFPLFR (N-terminal FITC-Ahx, C-terminal amide, disulfide cyclized; Randomly generated peptide)”, the “fluorescence in the cells” value was “positive fluorescence” in the assay on Human control myotubes (10 minutes); “clear fluorescence throughout the cells and in the nuclei” in the assay with Human control myotubes (1 h); “Brightest fluorescence; also recorded: clear fluorescence throughout the cells and in the nuclei” in the assay with Human control myotubes (3 h); “positive fluorescence” in the assay with human cardiomyocytes (10 minutes); “Brightest fluorescence; also recorded: clear fluorescence throughout the cells and in the nuclei” with human cardiomyocytes (3 h).
